“Also recorded” adds a separate entry of the source. Square brackets hold non-standard residues; d marks the D form. Ends that are not written are not given here. d(pS) = N[C@H](COP(=O)(O)O)C(=O)O
Tests used:
F508del CFTR [1] = target: T1, F508del CFTR (Homo sapiens, UniProt P13569, DEL508-508); assay: Ussing chamber short-circuit current on bronchial epithelia from homozygous F508del patient; type: cell-based; parameters: Ussing chamber experiments on bronchial epithelia from homozygous F508del patient; host or cells: primary human bronchial epithelial cells from a CF patient homozygous for F508del; conditions: epithelia incubated 24 h with 1 μM Vx-809, then amiloride, cpt-cAMP and potentiator
Protocol: Snapwell inserts (Corning 3801) carrying differentiated bronchial epithelia were mounted in a vertical diffusion chamber, resembling a Ussing chamber with internal fluid circulation. Both apical and basolateral chambers were filled with 5 ml of saline solution. The short-circuit current was recorded with a PowerLab 4/25 (ADInstruments) analog-to-digital converter connected to a computer. Epithelia were incubated for 24 h with 1 μM Vx-809 or 0.1% DMSO. Afterwards, 10 μM amiloride was added; subsequently, CFTR channels were activated by phosphorylation upon addition of 100 μM cpt-cAMP (permeable cAMP analog). Then, 1 μM of the potentiator Vx-770 as well as each Esc peptide was added on the epithelium apical side, as indicated. Finally, 10 μM Inh172, a specific inhibitor of CFTR was added to the epithelium apical side. Measurements were done after 5 min from the addition of each substance. In parallel, epithelia pre-incubated for 24 h with each peptide and then treated with amiloride, cpt-cAMP and Vx-770 were used for comparison.
The CFTR potentiating activity of Esc peptides in primary airway epithelial cells was studied by Ussing chamber experiments on bronchial epithelia from homozygous F508del patient. Epithelia were treated for 24 h with 0.1% DMSO vehicle alone, 1 μM Vx809 or with each Esc peptide. […]

Pseudomonas aeruginosa = conditions: cited from earlier work
wt-CFBE = conditions: compared with Esc(1-21); cited from earlier work
F508del-CFBE = conditions: compared with Esc(1-21); cited from earlier work
P. aeruginosa biofilm = conditions: compared with Esc(1-21); cited from earlier work
Pseudomonas = conditions: single intra-tracheal instillation, cited from earlier work
F508del CFTR [2] = target: T1, F508del CFTR; assay: CFTR-dependent trans-epithelial conductance by TEER in F508del-CFBE pre-incubated with Vx-809; type: cell-based; parameters: expressed in transfected cells; host or cells: CFBE41o- human bronchial epithelial cells, lentiviral transduction (F508del-CFBE); conditions: for CFTR conductance: 10 μM peptide + 20 μM FSK without GEN, 10 min, pre-incubated 24 h with 1 μM Vx-809
Protocol: In parallel, to evaluate CFTR activation, the same saline solution was used. After measurement of basal TEER, 20 μM FSK+50 μM GEN as positive control, or FSK+ peptides at the desired concentration were added on the epithelium apical side. Finally, 30 μM PPQ102, a specific inhibitor of CFTR, was added on the epithelium apical side. After each addition, we waited ten minutes at 37° C. before measurement. From the values of TEER measured before and after CFTR inhibition, we calculated the CFTR-dependent trans-epithelial conductance for each condition [Sondo E, Falchi F, Caci E, Ferrera L, Giacomini E, Pesce E, Tomati V, Mandrup Bertozzi S, Goldoni L, Armirotti A, Ravazzolo R, Cavalli A, Pedemonte N (2018) Pharmacological Inhibition of the Ubiquitin Ligase RNF5 Rescues F508del-CFTR in Cystic Fibrosis Airway Epithelia. Cell Chem Biol 25, 891-905 e898].
Subsequently, was investigated the ability of Esc peptides to act as potentiators of mutated CFTR, by promoting its phosphorylation state or its channel opening time, mimicking the activity of forskolin (FSK) or genistein (GEN), respectively, which are both needed for full activation of CFTR [Sondo E, Falchi F, Caci E, Ferrera L, Giacomini E, Pesce E, Tomati V, Mandrup Bertozzi S, Goldoni L, Armirotti A, Ravazzolo R, Cavalli A, Pedemonte N (2018) Pharmacological Inhibition of the Ubiquitin Ligase RNF5 Rescues F508del-CFTR in Cystic Fibrosis Airway Epithelia. Cell Chem Biol 25, 891-905 e898]. Noteworthy, the adenylate cyclase activator FSK [Ma T, Thiagarajah J R, Yang H, Sonawane N D, Folli C, Galietta L J, Verkman A S (2002) Thiazolidinone CFTR inhibitor identified by high-throughput screening blocks cholera toxin-induced intestinal fluid secretion. J Clin Invest 110, 1651-1658] is reported to trigger an increase of intracellular cAMP favouring CFTR phosphorylation by cellular protein kinases e.g. PKA, while the isoflavone GEN accelerates channel opening, by promoting NBD dimerization, and slows channel closure by stabilizing the NBD1:NBD2 dimer conformation [Schmidt A, Hughes L K, Cai Z, Mendes F, Li H, Sheppard D N, Amaral M D (2008) Prolonged treatment of cells with genistein modulates the expression and function of the cystic fibrosis transmembrane conductance regulator. Br J Pharmacol 153, 1311-1323]. The CFTR-mediated conductance of bronchial epithelium was evaluated by TEER, after 10 min, 1 h and 2 h treatment of F508del-CFBE (pre-incubated with the corrector Vx-809 in order to trigger the mutated protein to the apical membrane) with Esc(1-21)-1c (10 μM), in the absence of FSK or GEN. […] This clearly denoted that the peptide was able to potentiate CFTR activity, likely by prolonging its channel opening time.
The conductance was then measured on F508del-CFBE. […]

F508del CFTR [3] = target: T1, F508del CFTR; assay: Trans-epithelial electrical conductance in del508-FRT cells, position-17 analogs; type: cell-based; parameters: expressed in transfected cells; conditions: 10 min treatment with 10 μM peptide tested as potentiator (instead of genistein)
Excerpt: To understand whether the potentiator effect of Esc peptides was specifically dependent on their sequence and/or correlated to the presence of Ser17, eventually upon its phosphorylation by PKA, a series of peptide analogs bearing different L/D amino acids at position 17 were synthesized, the analogs are presented in the following table 1. The analogs were used to measure the trans-epithelial electrical conductance in […] Rat Thyroid cells, which is a cell line frequently used for functional studies and stably expressing F508del-CFTR (del508-FRT). Among them, compounds 3 and 5 carrying L and D-Alanine, respectively; compound 6 carrying the achiral Glycine17; compounds 7 and 8, with another potential target amino acid of protein kinases i.e. D and L-threonine respectively; and compounds 9 ad 10 where Ser17 was replaced by a residue with a bulky side chain, i.e. D and L tryptophan, respectively. Furthermore, an analog with L-phosphoserine at position 17 were included for comparison.

T1 sequence (P13569 with tags, fused parts or gaps DEL508-508): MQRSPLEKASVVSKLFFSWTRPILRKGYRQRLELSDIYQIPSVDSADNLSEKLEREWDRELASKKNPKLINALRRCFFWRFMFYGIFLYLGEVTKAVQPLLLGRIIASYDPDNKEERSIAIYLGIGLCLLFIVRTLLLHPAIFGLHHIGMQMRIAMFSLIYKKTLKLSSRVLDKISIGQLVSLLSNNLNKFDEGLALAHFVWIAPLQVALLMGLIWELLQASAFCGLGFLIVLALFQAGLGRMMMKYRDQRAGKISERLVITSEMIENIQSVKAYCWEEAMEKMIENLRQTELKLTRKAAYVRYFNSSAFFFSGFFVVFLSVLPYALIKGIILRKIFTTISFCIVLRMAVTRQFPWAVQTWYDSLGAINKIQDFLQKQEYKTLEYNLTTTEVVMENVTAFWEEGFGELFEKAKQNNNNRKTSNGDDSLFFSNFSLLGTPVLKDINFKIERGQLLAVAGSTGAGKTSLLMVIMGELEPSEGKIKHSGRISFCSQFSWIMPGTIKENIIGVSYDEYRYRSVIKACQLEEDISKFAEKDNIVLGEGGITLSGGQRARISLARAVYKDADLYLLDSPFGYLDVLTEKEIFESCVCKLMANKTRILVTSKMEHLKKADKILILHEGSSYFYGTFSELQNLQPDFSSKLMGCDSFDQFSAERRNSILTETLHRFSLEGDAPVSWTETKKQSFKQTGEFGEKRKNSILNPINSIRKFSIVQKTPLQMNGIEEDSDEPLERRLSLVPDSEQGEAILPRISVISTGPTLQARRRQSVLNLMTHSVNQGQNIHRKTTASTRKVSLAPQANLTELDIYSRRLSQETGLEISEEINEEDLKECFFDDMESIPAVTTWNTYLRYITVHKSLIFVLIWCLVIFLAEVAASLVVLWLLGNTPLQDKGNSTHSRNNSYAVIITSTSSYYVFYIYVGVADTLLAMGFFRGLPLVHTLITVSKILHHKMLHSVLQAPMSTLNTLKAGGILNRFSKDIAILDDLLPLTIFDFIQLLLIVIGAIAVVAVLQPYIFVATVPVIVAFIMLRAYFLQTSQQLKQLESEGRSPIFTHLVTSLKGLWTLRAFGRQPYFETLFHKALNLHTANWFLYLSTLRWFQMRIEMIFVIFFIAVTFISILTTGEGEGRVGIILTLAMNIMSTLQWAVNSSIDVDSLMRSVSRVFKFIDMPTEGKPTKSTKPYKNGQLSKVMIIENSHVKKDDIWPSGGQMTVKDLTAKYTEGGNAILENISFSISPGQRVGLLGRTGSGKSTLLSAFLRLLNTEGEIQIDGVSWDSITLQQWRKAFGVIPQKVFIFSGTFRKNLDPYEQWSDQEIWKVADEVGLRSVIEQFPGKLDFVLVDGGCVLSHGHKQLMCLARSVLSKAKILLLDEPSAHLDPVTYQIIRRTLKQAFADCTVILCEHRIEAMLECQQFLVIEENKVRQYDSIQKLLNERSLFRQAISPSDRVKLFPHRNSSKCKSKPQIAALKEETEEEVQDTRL

Question: For CC(C)(C)c1cc(C(C)(C)C)c(NC(=O)c2c[nH]c3ccccc3c2=O)cc1O [Vx-770], which “CFTR-mediated current as potentiator” value (F508del CFTR [1]) is on record?
Answer: significant current increase

Question: For “GIFSKLAGKKIKNLLISGLKG-NH2 [Esc(1-21), first 20 amino acids of Esculentin 1a with a glycinamide residue at the C-terminus]”, which antipseudomonal activity (Pseudomonas aeruginosa) is on record?
Answer: potent antipseudomonal activity

Question: With “Gly-Ile-Phe-Ser-Lys-Leu-Ala-Gly-Lys-Lys-Ile-Lys-Asn-dLeu-Leu-Ile-dSer-Gly-Leu-Lys-Gly-NH2 (GIFSKLAGKKIKN[dL]LI[dS]GLKG-NH2) [Esc(1-21)-1c, diastereomer of Esc(1-21) with two D-amino acids]” as the compound, how does the “re-epithelialization of bronchial epithelial cells” value (wt-CFBE) read?
Answer: more efficient to induce re-epithelialization

Question: What about the “re-epithelialization of bronchial epithelial cells” value (F508del-CFBE) of the same compound?
Answer: more efficient to induce re-epithelialization

Question: And the “activity against P. aeruginosa biofilm” value (P. aeruginosa biofilm)?
Answer: more active against P. aeruginosa biofilm

Question: And the “reduction of lung bacterial burden” value (Pseudomonas; 0.1 mg/kg corresponding to 20 μM, compared with Esc(1-21))?
Answer: more potent in reducing lung bacterial burden

Question: What about the “toxicity or inflammatory side events” value (Pseudomonas; 0.1 mg/kg) of the same compound?
Answer: negligible toxicity or inflammatory side events

Question: And the CFTR conductance (F508del CFTR [2])?
Answer: significant increase of CFTR conductance

Question: What about the “potentiator activity (CFTR conductance) over time” value (F508del CFTR [2]; 10 μM peptide + FSK without GEN, 1 h or 2 h treatment, pre-incubated with Vx-809) of the same compound?
Answer: remain constant up to 2 h

Question: And the “CFTR-mediated conductance (rescue of CFTR activity)” value (F508del CFTR [2]; 10 μM peptide in the absence of FSK, pre-incubated with Vx-809)?
Answer: no rescue of CFTR activity

Question: With “Gly-Ile-Phe-Ser-Lys-Leu-Ala-Gly-Lys-Lys-Ile-Lys-Asn-dLeu-Leu-Ile-dphosphoSer-Gly-Leu-Lys-Gly-NH2 (GIFSKLAGKKIKN[dL]LI[d(pS)]GLKG-NH2; N-terminus assumed; SMILES CC[C@H](C)[C@H](NC(=O)CN)C(=O)N[C@@H](Cc1ccccc1)C(=O)N[C@@H](CO)C(=O)N[C@@H](CCCCN)C(=O)N[C@@H](CC(C)C)C(=O)N[C@@H](C)C(=O)NCC(=O)N[C@@H](CCCCN)C(=O)N[C@@H](CCCCN)C(=O)N[C@H](C(=O)N[C@@H](CCCCN)C(=O)N[C@@H](CC(N)=O)C(=O)N[C@H](CC(C)C)C(=O)N[C@@H](CC(C)C)C(=O)N[C@H](C(=O)N[C@H](COP(=O)(O)O)C(=O)NCC(=O)N[C@@H](CC(C)C)C(=O)N[C@@H](CCCCN)C(=O)NCC(N)=O)[C@@H](C)CC)[C@@H](C)CC) [compound 2, carrying D-phosphoSer at position 17]” as the compound, how does the “transepithelial conductance (function of F508del-CFTR)” value (F508del CFTR [3]) read?
Answer: significantly increase; also recorded: higher than that of genistein

Question: For temporin A [reference compound], which CFTR conductance (F508del CFTR [2]) is on record?
Answer: no effect on CFTR currents

From patent US12583893B2, “Use of esculentin and its derivatives for use in the treatment of cystic fibrosis” (UNIVERSITÀ DEGLI STUDI DI ROMA LA SAPIENZA, priority 2019, dated 2026)
